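Assay format: 96-well plates, 48-hour exposure. At the GI50, growth is halved. TGI is the concentration that stops growth completely.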

Among the test systems are OVCAR-4 ovarian; RXF 393 renal; A498 renal; KM12 colon; SK-MEL-2 melanoma; T-47D breast; HCT-116 colon; SK-MEL-28 melanoma; OVCAR-3 ovarian; HCT-15 colon.
What all share (test): DTP human tumour cell line panel, 48 h

As to `O=C(NO)c1ccc(Cn2c(=O)n(-c3ccccc3)c(=O)c3ccccc32)cc1`, the GI50 (in general, the concentration at which growth is held to half of that of the control) is 1.56 µM in the test with OVCAR-4 ovarian; 1.11 µM with RXF 393 renal; 0.418 µM in the test on A498 renal; 1.11 µM in the test with KM12 colon; 1.22 µM in the test on SK-MEL-2 melanoma; 0.436 µM in the test with T-47D breast. In addition, the concentration for 50% growth inhibition (GI50) was 0.324 µM in the test on HCT-116 colon, 0.519 µM in the test with SK-MEL-28 melanoma and 1.58 µM with OVCAR-3 ovarian. In addition, the total growth inhibition concentration (TGI) (as a rule, the concentration giving total growth inhibition) in the test on OVCAR-4 ovarian is 18.7 µM; in the test on RXF 393 renal, 2.66 µM; in the test with A498 renal it was 2.09 µM; in the test with KM12 colon, 2.73 µM; with SK-MEL-2 melanoma, 3.34 µM; in the test with T-47D breast, 2.95 µM. For the same molecule, the TGI in the test on HCT-116 colon worked out at 0.898 µM; in the test on SK-MEL-28 melanoma, 2.93 µM; in the test with OVCAR-3 ovarian it was 7.87 µM.

For the molecule `COc1ccc(/C=C\c2cc(OC)c(OC)c(OC)c2)cc1OCC(=O)Nc1nc2ccccc2s1`, the GI50 was 0.476 µM with OVCAR-4 ovarian; 0.0503 µM with RXF 393 renal; 0.0519 µM in the test with HCT-15 colon; 0.346 µM in the test with A498 renal; 0.0646 µM with KM12 colon; 0.187 µM in the test with SK-MEL-2 melanoma. Besides, the GI50 in the test with T-47D breast is 1.59 µM; in the test on HCT-116 colon, 0.0439 µM. The TGI in the test with OVCAR-4 ovarian is greater than 100 µM; in the test with RXF 393 renal, 79.9 µM; in the test with HCT-15 colon it was greater than 100 µM; in the test on A498 renal, greater than 83.4 µM; with KM12 colon it was greater than 100 µM; with SK-MEL-2 melanoma, greater than 100 µM. Besides, the TGI with T-47D breast was greater than 69.6 µM; in the test with HCT-116 colon, greater than 100 µM.

As for `COc1cc(-c2nc(-c3ccc(-c4nc5ccc(F)cc5[nH]4)cc3)no2)cc(OC)c1OC`, the GI50 in the test on OVCAR-4 ovarian is 2.82 µM; in the test with RXF 393 renal, 1.9 µM; with HCT-15 colon, 3.15 µM; with A498 renal, 4.19 µM; in the test with KM12 colon it was 3.08 µM; with SK-MEL-2 melanoma, 4.21 µM. The results for the GI50 in the test on T-47D breast, in the test with SK-MEL-28 melanoma and in the test with OVCAR-3 ovarian were 2.72 µM, 3.78 µM and 2.56 µM, respectively. Also, the TGI with OVCAR-4 ovarian worked out at 11.3 µM; in the test with RXF 393 renal it was 5.44 µM; in the test with HCT-15 colon, 12.8 µM; in the test with A498 renal it was 26.1 µM; with KM12 colon it was 8.98 µM; with SK-MEL-2 melanoma it was 13.4 µM. The TGI in the test with T-47D breast was found to be 7.46 µM; in the test on SK-MEL-28 melanoma, 16 µM; in the test with OVCAR-3 ovarian it was 5.83 µM.

Turning to `O=C(Cc1ccc(Nc2ccnc(C(F)(F)F)c2)cc1)Nc1cc(Cl)ccc1O`, the GI50 in the test on OVCAR-4 ovarian is 9.48 µM; in the test with RXF 393 renal, 25 µM; with HCT-15 colon it was 5.66 µM; with A498 renal, 3.03 µM; in the test with KM12 colon, 4.36 µM; in the test on T-47D breast it was 2.77 µM. Also, the GI50 is 5.12 µM with HCT-116 colon, 6.06 µM in the test on SK-MEL-28 melanoma and 3.37 µM with OVCAR-3 ovarian. Moreover, the TGI in the test with OVCAR-4 ovarian stood at 84.2 µM; in the test with RXF 393 renal it was 52.4 µM; with HCT-15 colon, 61 µM; in the test on A498 renal, 10.6 µM; in the test on KM12 colon it was 16.9 µM; in the test with T-47D breast, 11.3 µM. Besides, the TGI amounted to 26.5 µM with HCT-116 colon, 18.7 µM in the test with SK-MEL-28 melanoma and 13.6 µM with OVCAR-3 ovarian.

Turning to `Fc1cccc(Cl)c1Cn1c(-c2c(F)cccc2Cl)nc2ccccc21`, the GI50 is 23.6 µM in the test with OVCAR-4 ovarian; 19.7 µM in the test with RXF 393 renal; 16.4 µM in the test with HCT-15 colon; 19.2 µM in the test with A498 renal; 14.6 µM in the test with KM12 colon; 13.9 µM in the test with T-47D breast. The GI50 with HCT-116 colon is 34.4 µM; in the test with SK-MEL-28 melanoma it was 20.4 µM; with OVCAR-3 ovarian it was 17.4 µM. Further, the TGI in the test on OVCAR-4 ovarian is 58.3 µM; in the test with RXF 393 renal, 43.6 µM; in the test with HCT-15 colon, 42.9 µM; in the test on A498 renal, 36.6 µM; in the test with KM12 colon, 42.4 µM; in the test with T-47D breast, 62.9 µM. Besides, the TGI with HCT-116 colon was greater than 100 µM; in the test on SK-MEL-28 melanoma, 46.2 µM; in the test on OVCAR-3 ovarian, 60.2 µM.

For the molecule `CN(C)c1ccc2cc3ccc(N(C)C)cc3nc2c1`, the TGI in the test with OVCAR-4 ovarian amounted to 3.37 µM; in the test on RXF 393 renal it was 22.7 µM; in the test on HCT-15 colon it was 2.94 µM; in the test on A498 renal, 9.01 µM; in the test with KM12 colon it was 1.85 µM; in the test with SK-MEL-2 melanoma it was 21.9 µM. For the same molecule, the TGI with T-47D breast was found to be 36.4 µM; with SK-MEL-28 melanoma it was 16.3 µM; with OVCAR-3 ovarian it was 13.4 µM.

As to `CC(=O)Nc1ccc(-c2csc(Nc3cccc(-c4csc(-c5ccccc5)n4)c3)n2)cc1`, the GI50 is 13.7 µM in the test on RXF 393 renal; 10.3 µM in the test with HCT-15 colon; 46 µM in the test on A498 renal; 24 µM with KM12 colon; 16.4 µM in the test on SK-MEL-2 melanoma; 43.4 µM with T-47D breast. For the same molecule, the GI50 in the test with HCT-116 colon is 18.4 µM; with SK-MEL-28 melanoma it was 6.75 µM; with OVCAR-3 ovarian, 20.4 µM. For the same molecule, the TGI in the test with RXF 393 renal was 39.6 µM; in the test on HCT-15 colon, greater than 50 µM; in the test with A498 renal, greater than 50 µM; with KM12 colon, greater than 50 µM; in the test with SK-MEL-2 melanoma, greater than 50 µM; in the test on T-47D breast, greater than 50 µM. The TGI was greater than 50 µM with HCT-116 colon, 36.4 µM with SK-MEL-28 melanoma and greater than 50 µM with OVCAR-3 ovarian.

Values taken from PubChem BioAssay (NCI).
